Data taken from PubChem BioAssay (NCI).
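Test compounds were applied to cells in 96-well plates for 48 hours at 5 doses. The concentration for full growth arrest is given as TGI.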

Columns and labels:
Test in all cases: NCI-60 cell line screen, 48 h
RPMI-8226 leukemia = test system: RPMI-8226 leukemia
EKVX NSCLC = test system: EKVX NSCLC
SNB-75 CNS = test system: SNB-75 CNS
UACC-62 melanoma = test system: UACC-62 melanoma
M14 melanoma = test system: M14 melanoma
T-47D breast = test system: T-47D breast
HL-60(TB) leukemia = test system: HL-60(TB) leukemia
NCI/ADR-RES ovarian = test system: NCI/ADR-RES ovarian
DU-145 prostate = test system: DU-145 prostate
PC-3 prostate = test system: PC-3 prostate
K-562 leukemia = test system: K-562 leukemia
U251 CNS = test system: U251 CNS
SW-620 colon = test system: SW-620 colon
NCI-H226 lung = test system: NCI-H226 lung
BT-549 breast = test system: BT-549 breast
HOP-62 NSCLC = test system: HOP-62 NSCLC
ACHN renal = test system: ACHN renal
OVCAR-5 ovarian = test system: OVCAR-5 ovarian
SR leukemia = test system: SR leukemia
UACC-257 melanoma = test system: UACC-257 melanoma
HCT-116 colon = test system: HCT-116 colon
NCI-H23 lung = test system: NCI-H23 lung
MCF7 breast = test system: MCF7 breast
CAKI-1 renal = test system: CAKI-1 renal
SNB-19 CNS = test system: SNB-19 CNS
HOP-92 NSCLC = test system: HOP-92 NSCLC
HS 578T breast = test system: HS 578T breast
UO-31 renal = test system: UO-31 renal
SK-OV-3 ovarian = test system: SK-OV-3 ovarian
RXF 393 renal = test system: RXF 393 renal
HT29 colon = test system: HT29 colon
NCI-H460 lung = test system: NCI-H460 lung
SF-539 CNS = test system: SF-539 CNS
SK-MEL-28 melanoma = test system: SK-MEL-28 melanoma
NCI-H522 lung = test system: NCI-H522 lung
IGROV1 ovarian = test system: IGROV1 ovarian
A498 renal = test system: A498 renal
SK-MEL-5 melanoma = test system: SK-MEL-5 melanoma
OVCAR-8 ovarian = test system: OVCAR-8 ovarian
A549 NSCLC = test system: A549 NSCLC
786-0 renal = test system: 786-0 renal
MDA-MB-435 = test system: MDA-MB-435
SK-MEL-2 melanoma = test system: SK-MEL-2 melanoma
SN12C renal = test system: SN12C renal
OVCAR-3 ovarian = test system: OVCAR-3 ovarian
KM12 colon = test system: KM12 colon
OVCAR-4 ovarian = test system: OVCAR-4 ovarian
MDA-MB-231 breast = test system: MDA-MB-231 breast
HCC-2998 colon = test system: HCC-2998 colon
SF-295 CNS = test system: SF-295 CNS
HCT-15 colon = test system: HCT-15 colon
MOLT-4 leukemia = test system: MOLT-4 leukemia
SF-268 CNS = test system: SF-268 CNS
CCRF-CEM leukemia = test system: CCRF-CEM leukemia
TK-10 renal = test system: TK-10 renal
COLO 205 colon = test system: COLO 205 colon
MALME-3M melanoma = test system: MALME-3M melanoma
LOX IMVI melanoma = test system: LOX IMVI melanoma

SMILES: CCOC(=O)CSc1nc(-c2ccccc2)c(C#N)c(=O)[nH]1
- TGI (RPMI-8226 leukemia): > 100 µM
- TGI (EKVX NSCLC): > 100 µM
- TGI (SNB-75 CNS): > 100 µM
- TGI (UACC-62 melanoma): > 100 µM
- TGI (M14 melanoma): > 100 µM
- TGI (T-47D breast): > 100 µM
- TGI (HL-60(TB) leukemia): > 100 µM
- TGI (NCI/ADR-RES ovarian): > 100 µM
- TGI (DU-145 prostate): > 100 µM
- TGI (PC-3 prostate): > 100 µM
- TGI (K-562 leukemia): > 100 µM
- TGI (U251 CNS): > 100 µM
- TGI (SW-620 colon): > 100 µM
- TGI (NCI-H226 lung): > 100 µM
- TGI (BT-549 breast): > 100 µM
- TGI (HOP-62 NSCLC): > 100 µM
- TGI (ACHN renal): > 100 µM
- TGI (OVCAR-5 ovarian): > 100 µM
- TGI (SR leukemia): > 100 µM
- TGI (UACC-257 melanoma): > 100 µM
- TGI (HCT-116 colon): > 100 µM
- TGI (NCI-H23 lung): > 100 µM
- TGI (MCF7 breast): > 100 µM
- TGI (CAKI-1 renal): > 100 µM
- TGI (SNB-19 CNS): > 100 µM
- TGI (HOP-92 NSCLC): > 100 µM
- TGI (HS 578T breast): > 100 µM
- TGI (UO-31 renal): > 100 µM
- TGI (SK-OV-3 ovarian): > 100 µM
- TGI (RXF 393 renal): > 100 µM
- TGI (HT29 colon): > 100 µM
- TGI (NCI-H460 lung): > 100 µM
- TGI (SF-539 CNS): > 100 µM
- TGI (SK-MEL-28 melanoma): > 100 µM
- TGI (NCI-H522 lung): 47 µM
- TGI (IGROV1 ovarian): > 100 µM
- TGI (A498 renal): > 100 µM
- TGI (SK-MEL-5 melanoma): > 100 µM
- TGI (OVCAR-8 ovarian): > 100 µM
- TGI (A549 NSCLC): > 100 µM
- TGI (786-0 renal): > 100 µM
- TGI (MDA-MB-435): > 100 µM
- TGI (SK-MEL-2 melanoma): > 100 µM
- TGI (SN12C renal): > 100 µM
- TGI (OVCAR-3 ovarian): > 100 µM
- TGI (KM12 colon): > 100 µM
- TGI (OVCAR-4 ovarian): > 100 µM
- TGI (MDA-MB-231 breast): > 100 µM
- TGI (HCC-2998 colon): > 100 µM
- TGI (SF-295 CNS): > 100 µM
- TGI (HCT-15 colon): > 100 µM
- TGI (MOLT-4 leukemia): > 100 µM
- TGI (SF-268 CNS): > 100 µM
- TGI (CCRF-CEM leukemia): > 100 µM
- TGI (TK-10 renal): > 100 µM
- TGI (COLO 205 colon): > 100 µM

SMILES: NC(N)=N/N=C/c1c(-c2ccccc2)nc2n1ccc1nc(-c3ccccc3)c(/C=N/N=C(N)N)n12
- TGI (RPMI-8226 leukemia): > 100 µM
- TGI (EKVX NSCLC): 65.7 µM
- TGI (SNB-75 CNS): > 100 µM
- TGI (UACC-62 melanoma): > 100 µM
- TGI (M14 melanoma): > 100 µM
- TGI (T-47D breast): > 100 µM
- TGI (HL-60(TB) leukemia): > 100 µM
- TGI (NCI/ADR-RES ovarian): > 100 µM
- TGI (DU-145 prostate): > 100 µM
- TGI (PC-3 prostate): > 100 µM
- TGI (K-562 leukemia): > 100 µM
- TGI (U251 CNS): > 100 µM
- TGI (SW-620 colon): > 100 µM
- TGI (NCI-H226 lung): > 100 µM
- TGI (BT-549 breast): > 100 µM
- TGI (HOP-62 NSCLC): > 100 µM
- TGI (ACHN renal): > 100 µM
- TGI (OVCAR-5 ovarian): > 100 µM
- TGI (UACC-257 melanoma): 81.8 µM
- TGI (HCT-116 colon): > 100 µM
- TGI (MALME-3M melanoma): 84 µM
- TGI (NCI-H23 lung): > 100 µM
- TGI (MCF7 breast): > 100 µM
- TGI (CAKI-1 renal): > 100 µM
- TGI (SNB-19 CNS): > 100 µM
- TGI (LOX IMVI melanoma): > 100 µM
- TGI (HOP-92 NSCLC): > 100 µM
- TGI (HS 578T breast): > 100 µM
- TGI (UO-31 renal): > 100 µM
- TGI (SK-OV-3 ovarian): > 100 µM
- TGI (RXF 393 renal): > 100 µM
- TGI (HT29 colon): > 100 µM
- TGI (NCI-H460 lung): > 100 µM
- TGI (SF-539 CNS): > 100 µM
- TGI (SK-MEL-28 melanoma): > 100 µM
- TGI (NCI-H522 lung): > 100 µM
- TGI (IGROV1 ovarian): 92.7 µM
- TGI (A498 renal): > 100 µM
- TGI (SK-MEL-5 melanoma): > 100 µM
- TGI (OVCAR-8 ovarian): > 100 µM
- TGI (A549 NSCLC): > 100 µM
- TGI (786-0 renal): > 100 µM
- TGI (MDA-MB-435): > 100 µM
- TGI (SK-MEL-2 melanoma): > 100 µM
- TGI (SN12C renal): > 100 µM
- TGI (OVCAR-3 ovarian): > 100 µM
- TGI (KM12 colon): > 100 µM
- TGI (OVCAR-4 ovarian): > 100 µM
- TGI (MDA-MB-231 breast): > 100 µM
- TGI (SF-295 CNS): > 100 µM
- TGI (HCT-15 colon): > 100 µM
- TGI (MOLT-4 leukemia): > 100 µM
- TGI (SF-268 CNS): > 100 µM
- TGI (CCRF-CEM leukemia): > 100 µM
- TGI (TK-10 renal): > 100 µM
- TGI (COLO 205 colon): > 100 µM
